From paper PMC8582824, “Targeting DDX3X Helicase Activity with BA103 Shows Promising Therapeutic Effects in Preclinical Glioblastoma Models” (Cancers, 2021)

Tested on: not listed separately
Test: Human liver microsomal metabolic stability
Assay type: in vitro ADME
Settings: 37 °C, 60 min
Description: Preliminary in vitro ADME analysis was performed to early evaluate the pharmacokinetic (PK) profile of our compounds (Figure 8). Aqueous solubility was calculated by LC-MS-MS analysis. An aliquot of 1 mg of compound was stirred for 24 h at 27 °C in 1 mL of water. The mixture was filtered, and the quantity of solubilized compound was determined. Passive permeability was determined using parallel artificial membrane permeability assay (PAMPA). Microsomal metabolic stability was determined by LC-UV-MS analysis by incubating compounds with human liver microsomes at 37 °C for 60 min (for details, see the Supporting Information). […]
Microsomal Stability Assay.
Each compound in DMSO solution was incubated at 37 °C for 60 min in 125 mM phosphate buffer (pH 7.4), 5 μL of human liver microsomal protein (0.2 mg mL-1), in the presence of a NADPH-generating system at a final […]
reaction was stopped by cooling on ice and adding 1.0 mL of acetonitrile. The reaction mixtures were then centrifuged, and the parent drug and metabolites were subsequently determined by LC-UV-MS.
Chromatographic analysis was performed with an Agilent 1100 LC/MSD VL system (G1946C) (Agilent Technologies, Palo Alto, CA) constituted by a vacuum solvent degassing unit, a binary high-pressure gradient pump, an 1100 series UV detector, and an 1100 MSD model VL benchtop mass spectrometer.
Chromatographic separation was obtained using a Varian Polaris C18-A column (150-4.6 mm, 5 μm particle size) and gradient elution: eluent A being ACN and eluent B consisting of water. The analysis started with 2% […]
flow rate was 0.8 mL min-1 and injection volume was 20 μL.
The Agilent 1100 series mass spectra detection (MSD) single-quadrupole instrument was equipped with the orthogonal spray API-ES (Agilent Technologies, Palo Alto, CA). Nitrogen was used as nebulizing and drying gas. The pressure of the nebulizing gas, the flow of the drying gas, the capillary voltage, the fragmentor voltage, and the vaporization temperature were set at 40 psi, 9 L/min, 3000 V, 70 V, and 350 °C, respectively.
UV detection was monitored at 280 nm. The LC-ESI-MS determination was performed by operating the MSD in the positive ion mode. Spectra were acquired over the scan range m/z 100-1500 using a step size of 0.1 u.
The percentage of not metabolized compound was calculated by comparison with reference solutions

| HLM Stability ± SD (Human Liver Microsomal Metabolic Stability) | Compound |
| --- | --- |
| 97.0 ± 0.5% | CCCCc1cn(-c2ccc(NC(=O)Nc3ccccc3C(F)(F)F)cc2)nn1 [BA103, 1-(4-(4-Butyl-1H-1,2,3-triazol-1-yl)phenyl)-3-(2-(trifluoromethyl)phenyl)urea] |
| 88.9 ± 0.9% | CCCCc1nnc(-c2ccc(NC(=O)Nc3ccccc3C(F)(F)F)cc2)o1 [Compound 3, 1-(4-(5-Butyl-1,3,4-oxadiazol-2-yl)phenyl)-3-(2-(trifluoromethyl)phenyl)urea] |

| Compound | HLM Stability ± SD (Human Liver Microsomal Metabolic Stability) |
| --- | --- |
| CCCCc1cn(-c2ccc(NC(=O)Nc3ccccc3C)cc2)nn1 [Compound 1, reference compound] | 99.0 ± 0.6% |

Tested on: U251 cells
Test: MTS cytotoxicity assay, U251 cells
Assay type: cell-based
Settings: U251, 0,01 uM, 72 h
Description: (§1) For CellTiter 96® Aqueous One Solution Cell Proliferation Assay (MTS) (Promega, Madison, WI, USA), cells were seeded at 5 × 10^3 per well in 96-well plates in quadruplicate together a control with no cells to evaluate the background. After 24 h, the culture medium was removed, and fresh medium containing increasing concentrations of chemical compounds was added to cells. […] DMSO was the vehicle used for dilution of the compounds, and its final concentration on cells was less than 0.2%. Medium-only containing wells were included as controls. Cells were incubated with compounds at different concentrations for 72 h, then, 20 µL of CellTiter 96® AQueous One Solution Reagent was added into each well. After 3 h at 37 °C in a humidified, 5% CO2 atmosphere, the absorbance at 492 nm was recorded using an EZREAD400 (Biochrom, Cambridge, United Kingdom) plate reader. The average 490 nm absorbance from the “no cell” control wells was subtracted from all other values to yield background-corrected absorbance. Dose–response curves and CC50 values have been calculated by plotting the absorbance data as a function of inhibitor concentrations and fitting the data by least-squares nonlinear regression, according to the method of Marquardt–Levenberg, with the computer program GraphPad Prism 6.0.
(§2) Cells were incubated with a scalar concentration of DDX3X inhibitors, and after 72 h of treatment, cell viability was assessed by cytotoxicity assay. […] Compounds 4, 6, and BA103 were also evaluated against BJ primary fibroblasts; compound 4 has a cytotoxicity value of 84.7 μM; on the contrary, compounds 6 and BA103 were not toxic up to 200 μM concentration. This further excluded a possible nonspecific cytotoxic effect. […] Due to its interesting profile, compound BA103 was further tested against additional pulmonary (A549), breast (MDA-MB-231), colorectal (HCT-116), osteosarcoma (U2OS), rhabdomyosarcoma (RD18), GBM (DBTRG, U87, and U251) and medulloblastoma (DAOY) cancer cell lines.
(§3) Figure 5 Cytotoxicity of selected compounds. Compounds were assayed on DU-145, PC3, HepG2, Huh-7, HN6, U251, and U87 cell lines. The concentration of the compound, which reduced the number of viable cells by 50% (CC50), was determined by dose–response curve, and the mean CC50 value for each cell line was calculated by triplicate assays (raw data from U87 and U251 cells with dose–response curves used for the calculation of CC50 in Table S1 and Figure S2).
(§4) Table S1: Raw data of optical absorbance at 490 nm from MTS assay in U87 and U251 cells. Tables contain
(§5) means with SD of at least 5 different values that were used for preparation of figure 5.

| Compound | mean absorbance at 490 nm (MTS) |
| --- | --- |
| CCCCc1cn(-c2ccc(NC(=O)Nc3ccccc3C(F)(F)F)cc2)nn1 [BA103, 1-(4-(4-Butyl-1H-1,2,3-triazol-1-yl)phenyl)-3-(2-(trifluoromethyl)phenyl)urea] | 2,166 |
| CCCCc1cn(-c2ccc(NC(=O)Nc3ccccc3C)cc2)nn1 [Compound 1, reference compound] | 2,020 |
| CCCCc1nnc(-c2ccc(NC(=O)Nc3ccccc3C(F)(F)F)cc2)o1 [Compound 3, 1-(4-(5-Butyl-1,3,4-oxadiazol-2-yl)phenyl)-3-(2-(trifluoromethyl)phenyl)urea] | 1,298 |

Same assay, conditions: U251, 0,1 uM, 72 h

| Compound | mean absorbance at 490 nm (MTS) |
| --- | --- |
| CCCCc1cn(-c2ccc(NC(=O)Nc3ccccc3C(F)(F)F)cc2)nn1 [BA103, 1-(4-(4-Butyl-1H-1,2,3-triazol-1-yl)phenyl)-3-(2-(trifluoromethyl)phenyl)urea] | 2,070 |
| CCCCc1cn(-c2ccc(NC(=O)Nc3ccccc3C)cc2)nn1 [Compound 1, reference compound] | 1,998 |
| CCCCc1nnc(-c2ccc(NC(=O)Nc3ccccc3C(F)(F)F)cc2)o1 [Compound 3, 1-(4-(5-Butyl-1,3,4-oxadiazol-2-yl)phenyl)-3-(2-(trifluoromethyl)phenyl)urea] | 1,025 |

Same assay, conditions: U251, 1 uM, 72 h

| Compound | mean absorbance at 490 nm (MTS) |
| --- | --- |
| CCCCc1cn(-c2ccc(NC(=O)Nc3ccccc3C(F)(F)F)cc2)nn1 [BA103, 1-(4-(4-Butyl-1H-1,2,3-triazol-1-yl)phenyl)-3-(2-(trifluoromethyl)phenyl)urea] | 1,364 |
| CCCCc1cn(-c2ccc(NC(=O)Nc3ccccc3C)cc2)nn1 [Compound 1, reference compound] | 1,459 |
| CCCCc1nnc(-c2ccc(NC(=O)Nc3ccccc3C(F)(F)F)cc2)o1 [Compound 3, 1-(4-(5-Butyl-1,3,4-oxadiazol-2-yl)phenyl)-3-(2-(trifluoromethyl)phenyl)urea] | 1,098 |

Same assay, conditions: U251, 10 uM, 72 h

| Compound | mean absorbance at 490 nm (MTS) |
| --- | --- |
| CCCCc1cn(-c2ccc(NC(=O)Nc3ccccc3C(F)(F)F)cc2)nn1 [BA103, 1-(4-(4-Butyl-1H-1,2,3-triazol-1-yl)phenyl)-3-(2-(trifluoromethyl)phenyl)urea] | 0,842 |
| CCCCc1cn(-c2ccc(NC(=O)Nc3ccccc3C)cc2)nn1 [Compound 1, reference compound] | 1,107 |
| CCCCc1nnc(-c2ccc(NC(=O)Nc3ccccc3C(F)(F)F)cc2)o1 [Compound 3, 1-(4-(5-Butyl-1,3,4-oxadiazol-2-yl)phenyl)-3-(2-(trifluoromethyl)phenyl)urea] | 0,593 |

Same assay, conditions: U251, 100 uM, 72 h

| Compound | mean absorbance at 490 nm (MTS) |
| --- | --- |
| CCCCc1cn(-c2ccc(NC(=O)Nc3ccccc3C(F)(F)F)cc2)nn1 [BA103, 1-(4-(4-Butyl-1H-1,2,3-triazol-1-yl)phenyl)-3-(2-(trifluoromethyl)phenyl)urea] | 0,604 |
| CCCCc1cn(-c2ccc(NC(=O)Nc3ccccc3C)cc2)nn1 [Compound 1, reference compound] | 0,474 |
| CCCCc1nnc(-c2ccc(NC(=O)Nc3ccccc3C(F)(F)F)cc2)o1 [Compound 3, 1-(4-(5-Butyl-1,3,4-oxadiazol-2-yl)phenyl)-3-(2-(trifluoromethyl)phenyl)urea] | 0,217 |

Tested on: U87 cells
Test: MTS cytotoxicity assay, U87 cells
Assay type: cell-based
Settings: U87, 0,01 uM, 72 h
Description: as §1, §2, §3, §4, §5

| Compound | mean absorbance at 490 nm (MTS) |
| --- | --- |
| CCCCc1cn(-c2ccc(NC(=O)Nc3ccccc3C(F)(F)F)cc2)nn1 [BA103, 1-(4-(4-Butyl-1H-1,2,3-triazol-1-yl)phenyl)-3-(2-(trifluoromethyl)phenyl)urea] | 1,598 |
| CCCCc1cn(-c2ccc(NC(=O)Nc3ccccc3C)cc2)nn1 [Compound 1, reference compound] | 2,027 |
| CCCCc1nnc(-c2ccc(NC(=O)Nc3ccccc3C(F)(F)F)cc2)o1 [Compound 3, 1-(4-(5-Butyl-1,3,4-oxadiazol-2-yl)phenyl)-3-(2-(trifluoromethyl)phenyl)urea] | 1,350 |

Same assay, conditions: U87, 0,1 uM, 72 h

| Compound | mean absorbance at 490 nm (MTS) |
| --- | --- |
| CCCCc1cn(-c2ccc(NC(=O)Nc3ccccc3C(F)(F)F)cc2)nn1 [BA103, 1-(4-(4-Butyl-1H-1,2,3-triazol-1-yl)phenyl)-3-(2-(trifluoromethyl)phenyl)urea] | 1,132 |
| CCCCc1cn(-c2ccc(NC(=O)Nc3ccccc3C)cc2)nn1 [Compound 1, reference compound] | 2,018 |
| CCCCc1nnc(-c2ccc(NC(=O)Nc3ccccc3C(F)(F)F)cc2)o1 [Compound 3, 1-(4-(5-Butyl-1,3,4-oxadiazol-2-yl)phenyl)-3-(2-(trifluoromethyl)phenyl)urea] | 1,140 |

Same assay, conditions: U87, 1 uM, 72 h

| Compound | mean absorbance at 490 nm (MTS) |
| --- | --- |
| CCCCc1cn(-c2ccc(NC(=O)Nc3ccccc3C(F)(F)F)cc2)nn1 [BA103, 1-(4-(4-Butyl-1H-1,2,3-triazol-1-yl)phenyl)-3-(2-(trifluoromethyl)phenyl)urea] | 0,959 |
| CCCCc1cn(-c2ccc(NC(=O)Nc3ccccc3C)cc2)nn1 [Compound 1, reference compound] | 2,000 |
| CCCCc1nnc(-c2ccc(NC(=O)Nc3ccccc3C(F)(F)F)cc2)o1 [Compound 3, 1-(4-(5-Butyl-1,3,4-oxadiazol-2-yl)phenyl)-3-(2-(trifluoromethyl)phenyl)urea] | 1,178 |

Same assay, conditions: U87, 10 uM, 72 h

| Compound | mean absorbance at 490 nm (MTS) |
| --- | --- |
| CCCCc1cn(-c2ccc(NC(=O)Nc3ccccc3C(F)(F)F)cc2)nn1 [BA103, 1-(4-(4-Butyl-1H-1,2,3-triazol-1-yl)phenyl)-3-(2-(trifluoromethyl)phenyl)urea] | 0,804 |
| CCCCc1cn(-c2ccc(NC(=O)Nc3ccccc3C)cc2)nn1 [Compound 1, reference compound] | 1,584 |
| CCCCc1nnc(-c2ccc(NC(=O)Nc3ccccc3C(F)(F)F)cc2)o1 [Compound 3, 1-(4-(5-Butyl-1,3,4-oxadiazol-2-yl)phenyl)-3-(2-(trifluoromethyl)phenyl)urea] | 1,065 |

Same assay, conditions: U87, 100 uM, 72 h

| Compound | mean absorbance at 490 nm (MTS) |
| --- | --- |
| CCCCc1cn(-c2ccc(NC(=O)Nc3ccccc3C(F)(F)F)cc2)nn1 [BA103, 1-(4-(4-Butyl-1H-1,2,3-triazol-1-yl)phenyl)-3-(2-(trifluoromethyl)phenyl)urea] | 0,566 |
| CCCCc1cn(-c2ccc(NC(=O)Nc3ccccc3C)cc2)nn1 [Compound 1, reference compound] | 0,465 |
| CCCCc1nnc(-c2ccc(NC(=O)Nc3ccccc3C(F)(F)F)cc2)o1 [Compound 3, 1-(4-(5-Butyl-1,3,4-oxadiazol-2-yl)phenyl)-3-(2-(trifluoromethyl)phenyl)urea] | 0,568 |

Same assay, conditions: U87, 72 h

| Compound | CC50 |
| --- | --- |
| CCCCc1cn(-c2ccc(NC(=O)Nc3ccccc3C(F)(F)F)cc2)nn1 [BA103, 1-(4-(4-Butyl-1H-1,2,3-triazol-1-yl)phenyl)-3-(2-(trifluoromethyl)phenyl)urea] | low micromolar range |
